Data on 3 compounds can be found in patent US20230355578A1, “PHARMACEUTICAL COMBINATIONS OF STATINS AND FIBRATES FOR THE TREATMENT AND PREVENTION OF […] AND CARDIOVASCULAR DISEASE” (LABORATORIOS SILANES S.A. DE C.V., priority 2020, published 2023).

For one series, the target named is T1, OATP1B1 (Homo sapiens, UniProt Q9Y6L6).
T1 sequence (Q9Y6L6 1-691): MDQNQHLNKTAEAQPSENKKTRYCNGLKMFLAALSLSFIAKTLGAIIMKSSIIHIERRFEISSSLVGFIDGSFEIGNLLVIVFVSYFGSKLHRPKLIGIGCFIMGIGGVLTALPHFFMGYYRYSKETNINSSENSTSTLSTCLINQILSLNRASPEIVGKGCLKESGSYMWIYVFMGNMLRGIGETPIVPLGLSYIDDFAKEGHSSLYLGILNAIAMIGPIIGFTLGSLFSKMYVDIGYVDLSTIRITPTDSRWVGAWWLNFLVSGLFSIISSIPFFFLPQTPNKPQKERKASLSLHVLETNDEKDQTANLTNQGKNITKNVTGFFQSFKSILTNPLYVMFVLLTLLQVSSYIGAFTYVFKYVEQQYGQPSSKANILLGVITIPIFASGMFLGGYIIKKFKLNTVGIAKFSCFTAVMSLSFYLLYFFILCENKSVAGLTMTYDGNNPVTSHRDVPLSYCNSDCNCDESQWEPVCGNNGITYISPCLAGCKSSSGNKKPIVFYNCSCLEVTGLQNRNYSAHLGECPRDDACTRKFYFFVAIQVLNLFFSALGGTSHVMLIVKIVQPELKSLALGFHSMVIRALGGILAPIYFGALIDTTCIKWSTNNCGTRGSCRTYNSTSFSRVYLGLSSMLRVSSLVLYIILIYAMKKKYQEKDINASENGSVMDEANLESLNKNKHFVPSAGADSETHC
The note with it: Wong, 2006, Yamazaki, 2005; cited from earlier work.

The conditions of series [1]: cited from earlier work.
In the next series the target is P-gp (Homo sapiens, UniProt P08183). The note with it: Wong, 2006, Yamazaki, 2005; cited from earlier work.
A further series relates to cytochrome P450. The note with it: Wong, 2006, Yamazaki, 2005; cited from earlier work.
Series [2] is described as follows: Particle size distribution by laser beam diffraction. Type of series: physicochemical. The protocol: The determination of the particle size distribution by laser beam diffraction for micronized fenofibrate was carried out using a DPS module in a particle size analyzer.
Determination of particle size distribution by laser beam diffraction was carried out for micronized fenofibrate by placing 0.5 g of the raw material in a sample holder and using a DPS module in the particle size analyzer to obtain an obscuration of 4-7%. The determination is made in duplicate.

Where two headings read alike, the source gives them in different places.

P-gp, sequence (P08183 whole entry): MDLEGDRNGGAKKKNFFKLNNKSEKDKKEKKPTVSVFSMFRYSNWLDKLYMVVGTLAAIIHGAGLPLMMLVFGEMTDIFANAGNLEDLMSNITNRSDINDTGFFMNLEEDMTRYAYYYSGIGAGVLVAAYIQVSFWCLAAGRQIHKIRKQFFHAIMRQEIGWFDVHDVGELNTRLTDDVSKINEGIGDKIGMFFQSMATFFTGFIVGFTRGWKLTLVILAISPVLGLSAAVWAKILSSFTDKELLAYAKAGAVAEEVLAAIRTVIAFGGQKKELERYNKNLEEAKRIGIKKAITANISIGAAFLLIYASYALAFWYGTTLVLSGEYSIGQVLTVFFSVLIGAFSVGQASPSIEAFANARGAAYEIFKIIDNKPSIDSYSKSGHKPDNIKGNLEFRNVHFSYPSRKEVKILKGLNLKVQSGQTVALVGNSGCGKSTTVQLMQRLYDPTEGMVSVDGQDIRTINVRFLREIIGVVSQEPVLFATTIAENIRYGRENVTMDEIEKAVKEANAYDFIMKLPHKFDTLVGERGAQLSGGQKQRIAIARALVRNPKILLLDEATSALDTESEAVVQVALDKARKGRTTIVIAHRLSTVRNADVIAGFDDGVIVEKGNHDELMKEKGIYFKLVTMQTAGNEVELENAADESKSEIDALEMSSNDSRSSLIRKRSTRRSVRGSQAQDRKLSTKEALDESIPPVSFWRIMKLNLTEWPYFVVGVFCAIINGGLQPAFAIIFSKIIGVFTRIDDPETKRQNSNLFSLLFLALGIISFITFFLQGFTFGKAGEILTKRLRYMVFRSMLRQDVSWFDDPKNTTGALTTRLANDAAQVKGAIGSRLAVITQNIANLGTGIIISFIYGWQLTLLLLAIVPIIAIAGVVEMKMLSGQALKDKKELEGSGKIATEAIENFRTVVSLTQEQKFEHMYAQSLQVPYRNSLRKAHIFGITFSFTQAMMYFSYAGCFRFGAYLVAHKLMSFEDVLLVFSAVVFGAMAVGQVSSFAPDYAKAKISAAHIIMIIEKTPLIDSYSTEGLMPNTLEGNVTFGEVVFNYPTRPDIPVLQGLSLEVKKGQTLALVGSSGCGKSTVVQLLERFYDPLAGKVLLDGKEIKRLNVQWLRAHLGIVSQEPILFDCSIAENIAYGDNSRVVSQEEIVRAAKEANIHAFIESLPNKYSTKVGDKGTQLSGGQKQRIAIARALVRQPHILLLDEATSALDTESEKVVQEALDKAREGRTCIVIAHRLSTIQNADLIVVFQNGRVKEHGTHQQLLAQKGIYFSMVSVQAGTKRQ

As to `CC(C)(Oc1ccc(C(=O)c2ccc(Cl)cc2)cc1)C(=O)O` [fenofibric acid], the “drug-drug interaction potential by inhibition of OATP1B1” value at OATP1B1 is “do not have a potential to cause a clinically significant drug-drug interaction by inhibition of OATP1B1”. Moreover, the “concentrations reported in the literature” value in series [1] (Back, 2018, Moffat, 2011) is on record as 3.17-30 μm/mL. Besides, on P-gp, the “inhibition of P-gp-mediated transport” value is listed as “do not significantly inhibit P-gp-mediated transport”. Besides, the “metabolism via cytochrome P450” value with cytochrome P450 is on record as “are not metabolized via cytochrome P450”.
As to `CC(C)c1c(C(=O)Nc2ccccc2)c(-c2ccccc2)c(-c2ccc(F)cc2)n1CC[C@@H](O)C[C@@H](O)CC(=O)O` [atorvastatin], in series [1] (Chou, 2013), the “concentrations reported in the literature” value was 2.5 to 50.1 ng/mL.
`CC(C)OC(=O)C(C)(C)Oc1ccc(C(=O)c2ccc(Cl)cc2)cc1` [fenofibrate]: at OATP1B1, the “drug-drug interaction potential by inhibition of OATP1B1” value is on record as “do not have a potential to cause a clinically significant drug-drug interaction by inhibition of OATP1B1”. Moreover, on P-gp, the “inhibition of P-gp-mediated transport” value was “do not significantly inhibit P-gp-mediated transport”. In addition, in series [2], the “particle size distribution (100%)” value is recorded as “less than 30 μm”, the “particle size distribution (d10)” value is listed as at most 0.95 μm, the “particle size distribution (d50)” value is at most 5.35 μm and the “particle size distribution (d90)” value is reported as at most 11.28 μm. Further, in the series with cytochrome P450, the “metabolism via cytochrome P450” value is given as “are not metabolized via cytochrome P450”.
